The results in this text go back to PubChem BioAssay AID268 (DTP/NCI, 2004).

Several values for one entry are separate records, joined by “and”; a condition that tells them apart may be missing. Equal values may be shown once.

This test concerns CD2F1 mice, P1798 lymphosarcoma sc, tumor weight T/C. The test is described as follows: NCI In Vivo Anticancer Drug Screen. Data for tumor model P1798 Lymphosarcoma (subcutaneous) in CD2F1 (CDF1) mice. As to conditions: endpoint: mean tumor weight, higher = larger tumour. The protocol:
The antitumor activity of compounds was measured in mice bearing transplantable tumors. Survival or tumor size were measured and the results are expressed as the measurement made in the treated group (T) divided by the measurement made in the vehicle treated control group (C). The tumor model used in this assay is P1798 Lymphosarcoma (subcutaneous) in CD2F1 (CDF1) mice

Where [1] appears, read: dose: 12.5 mg/kg/injection, schedule: Q01DX010 (sc), vehicle: steriod suspending solution.
Where [2] appears, read: dose: 25.0 mg/kg/injection, schedule: Q01DX010 (sc), vehicle: steriod suspending solution.
The mark [3] stands for this setting: dose: 50.0 mg/kg/injection, schedule: Q01DX010 (sc), vehicle: steriod suspending solution.
The mark [4] stands for this setting: dose: 6.25 mg/kg/injection, schedule: Q01DX010 (ip), vehicle: saline.
[5] abbreviates: dose: 12.5 mg/kg/injection, schedule: Q01DX010 (ip), vehicle: saline.
[6] abbreviates: dose: 25.0 mg/kg/injection, schedule: Q01DX010 (ip), vehicle: saline.
The mark [7] stands for this setting: dose: 50.0 mg/kg/injection, schedule: Q01DX010 (ip), vehicle: saline.
Setting [8] is: dose: 250.0 mg/kg/injection, schedule: Q01DX010 (ip), vehicle: saline.

In the case of `CC1C[C@@H]2[C@H]([C@@H](O)C[C@@]3(C)[C@H]2CC[C@]3(O)C(=O)CF)[C@@]2(C)CCC(=O)C=C12` (some centres not stated), the T/C is, setting by setting: (dose: 12.5 mg/kg/injection, schedule: Q01DX005 (sc), vehicle: steriod suspending solution) 92 % of control; under setting [1], 54 % of control and 60 % of control; (dose: 25.0 mg/kg/injection, schedule: Q01DX005 (sc), vehicle: steriod suspending solution) 47 % of control; under setting [2], 57 % of control and 71 % of control; (dose: 50.0 mg/kg/injection, schedule: Q01DX005 (sc), vehicle: steriod suspending solution) 55 % of control; under setting [3], 58 % of control and 65 % of control. Besides, the T/C (dose: 50.0 mg/kg/injection, schedule: Q03DX004 (sc), vehicle: steriod suspending solution) was 66 % of control; the T/C (dose: 75.0 mg/kg/injection, schedule: Q02DX010 (sc), vehicle: steriod suspending solution) is 100 % of control; the T/C (dose: 100.0 mg/kg/injection, schedule: Q01DX005 (sc), vehicle: steriod suspending solution) is 14 % of control; the T/C (dose: 100.0 mg/kg/injection, schedule: Q02DX010 (sc), vehicle: steriod suspending solution) was 93 % of control; the T/C (dose: 100.0 mg/kg/injection, schedule: Q03DX004 (sc), vehicle: steriod suspending solution) is 61 % of control; the T/C (dose: 150.0 mg/kg/injection, schedule: Q01DX010 (sc), vehicle: steriod suspending solution) was 118 % of control. Moreover, the T/C (dose: 150.0 mg/kg/injection, schedule: Q02DX010 (sc), vehicle: steriod suspending solution) was 95 % of control and the T/C (dose: 200.0 mg/kg/injection, schedule: Q03DX004 (sc), vehicle: steriod suspending solution) is 25 % of control.

As to `CC1CCC2C(C)C3C(CC4C5CC=C6CC(OC7OC(CO)C(O)C(OC8OC(CO)C(O)C(O)C8O)C7OC7OC(C)C(O)C(O)C7O)CCC6(C)C5CCC43C)N2C1` (configuration not stated), the T/C by setting is: under setting [2], 65 % of control; under setting [3], 44 % of control; (dose: 100.0 mg/kg/injection, schedule: Q01DX010 (sc), vehicle: steriod suspending solution) 16 % of control; (dose: 200.0 mg/kg/injection, schedule: Q01DX010 (sc), vehicle: steriod suspending solution) 9 % of control and 26 % of control; (dose: 400.0 mg/kg/injection, schedule: Q01DX010 (sc), vehicle: steriod suspending solution) 30 % of control.

`CC1CC(C)OS(=O)O1` (configuration not stated): the T/C (dose: 44.0 mg/kg/injection, schedule: Q01DX010 (ip), vehicle: saline) was 70 % of control and the T/C (dose: 66.0 mg/kg/injection, schedule: Q01DX010 (ip), vehicle: saline) is 30 % of control.

Regarding `NC(Cc1ccc(N(CCCl)CCCl)cc1)C(=O)O` (configuration not stated), the T/C is 51 % of control (dose: 2.5 mg/kg/injection, schedule: Q01DX010 (ip), vehicle: saline) and 39 % of control (dose: 5.0 mg/kg/injection, schedule: Q01DX010 (ip), vehicle: saline).

Regarding `NCCCC(N)C(=O)NCCCCCCCCCCNC(=O)C(N)CCCN` (configuration not stated), the T/C by setting is: under setting [4], 98 % of control; under setting [5], 86 % of control; under setting [6], 92 % of control; under setting [7], 65 % of control.

`Nc1c(Br)cc2c(c1Br)Cc1cc([N+](=O)[O-])ccc1-2`: the T/C is 72 % of control (dose: 31.3 mg/kg/injection, schedule: Q01DX010 (ip), vehicle: saline); 78 % of control (dose: 62.5 mg/kg/injection, schedule: Q01DX010 (ip), vehicle: saline); 61 % of control (dose: 125.0 mg/kg/injection, schedule: Q01DX010 (ip), vehicle: saline); 62 % of control under setting [8].

As for `OCC1OC(n2cnc3c(Cl)ncnc32)C(O)C1O` (configuration not stated), under setting [8], the T/C is 95 % of control and 103 % of control.

As to `Nc1nc2n[nH]nc2c(=O)[nH]1`, the T/C reads like this: (dose: 25.0 mg/kg/injection, schedule: Q01DX010 (ip), vehicle: alkali diluted with saline) 119 % of control; (dose: 50.0 mg/kg/injection, schedule: Q01DX010 (ip), vehicle: alkali diluted with saline) 64 % of control; (dose: 100.0 mg/kg/injection, schedule: Q01DX010 (ip), vehicle: alkali diluted with saline) 42 % of control and 49 % of control; (dose: 200.0 mg/kg/injection, schedule: Q01DX010 (ip), vehicle: alkali diluted with saline) 15 % of control and 29 % of control; (dose: 400.0 mg/kg/injection, schedule: Q01DX010 (ip), vehicle: alkali diluted with saline) 2 % of control.

`OC(CBr)C(O)C(O)C(O)CBr` (configuration not stated): the T/C was 62 % of control under setting [6]; 70 % of control and 84 % of control under setting [7]; 98 % of control (dose: 400.0 mg/kg/injection, schedule: Q01DX010 (ip), vehicle: saline).

Turning to `C[C@]12CC[C@@H]3c4ccc(O)cc4CC[C@H]3[C@@H]1CC[C@@H]2O`, the T/C was 80 % of control and 90 % of control (dose: 6.25 mg/kg/injection, schedule: Q01DX010 (sc), vehicle: steriod suspending solution); 70 % of control and 86 % of control under setting [1]; 77 % of control and 81 % of control under setting [2]; 100 % of control and 82 % of control under setting [3].

Take `C[C@]12CCC(=O)C=C1CC[C@H]1[C@@H]3CC[C@@]4(OCC4=O)[C@@]3(C)C[C@H](O)[C@@]12F`: the T/C is 59 % of control (dose: 10.0 mg/kg/injection, schedule: Q01DX010 (sc), vehicle: steriod suspending solution); 43 % of control (dose: 20.0 mg/kg/injection, schedule: Q01DX010 (sc), vehicle: steriod suspending solution); 48 % of control (dose: 40.0 mg/kg/injection, schedule: Q01DX010 (sc), vehicle: steriod suspending solution); 16 % of control (dose: 80.0 mg/kg/injection, schedule: Q01DX010 (sc), vehicle: steriod suspending solution); 7 % of control (dose: 160.0 mg/kg/injection, schedule: Q01DX010 (sc), vehicle: steriod suspending solution); 1 % of control (dose: 320.0 mg/kg/injection, schedule: Q01DX010 (sc), vehicle: steriod suspending solution).

On to `CS(=O)(=O)OCCCl`, for which the T/C was 155 % of control (dose: 9.4 mg/kg/injection, schedule: Q01DX010 (ip), vehicle: saline); 171 % of control (dose: 18.8 mg/kg/injection, schedule: Q01DX010 (ip), vehicle: saline); 186 % of control (dose: 37.5 mg/kg/injection, schedule: Q01DX010 (ip), vehicle: saline); 86 % of control (dose: 75.0 mg/kg/injection, schedule: Q01DX010 (ip), vehicle: saline).

Turning to `Nc1ncnc2[nH]ncc12`, the T/C is 84 % of control and 88 % of control (dose: 1.5 mg/kg/injection, schedule: Q01DX010 (ip), vehicle: saline); 73 % of control and 88 % of control (dose: 3.0 mg/kg/injection, schedule: Q01DX010 (ip), vehicle: saline); 43 % of control (dose: 12.0 mg/kg/injection, schedule: Q01DX010 (ip), vehicle: saline).

In the case of `CCCNc1ncnc2[nH]ncc12`, the T/C runs as follows: under setting [4], 92 % of control and 95 % of control; under setting [5], 72 % of control; under setting [6], 25 % of control.

Consider `Nc1ncnc2c1ncn2C1OC(COCc2ccccc2)C(OCc2ccccc2)C1OCc1ccccc1` (configuration not stated), for which the T/C was 107 % of control and 115 % of control (dose: 10.0 mg/kg/injection, schedule: Q01DX010 (ip), vehicle: saline); 92 % of control and 109 % of control (dose: 20.0 mg/kg/injection, schedule: Q01DX010 (ip), vehicle: saline); 114 % of control and 89 % of control (dose: 40.0 mg/kg/injection, schedule: Q01DX010 (ip), vehicle: saline); 93 % of control and 104 % of control (dose: 80.0 mg/kg/injection, schedule: Q01DX010 (ip), vehicle: saline).

Take `C=C1C[C@H]2[C@@H]3C=C(C)C4=CC(=O)CC[C@]4(C)[C@H]3CC[C@]2(C)[C@@]1(OC(C)=O)C(C)=O`: the T/C was 109 % of control and 116 % of control under setting [1]; 84 % of control under setting [2]; 120 % of control under setting [3]; 87 % of control (dose: 125.0 mg/kg/injection, schedule: Q01DX001 (sc), vehicle: steriod suspending solution); 124 % of control (dose: 125.0 mg/kg/injection, schedule: Q01DX010 (sc), vehicle: steriod suspending solution); 117 % of control (dose: 125.0 mg/kg/injection, schedule: Q02DX005 (sc), vehicle: steriod suspending solution). The T/C is, setting by setting: (dose: 250.0 mg/kg/injection, schedule: Q01DX001 (sc), vehicle: steriod suspending solution) 151 % of control and 160 % of control; (dose: 250.0 mg/kg/injection, schedule: Q01DX010 (sc), vehicle: steriod suspending solution) 76 % of control; (dose: 250.0 mg/kg/injection, schedule: Q02DX005 (sc), vehicle: steriod suspending solution) 110 % of control; (dose: 500.0 mg/kg/injection, schedule: Q01DX001 (sc), vehicle: steriod suspending solution) 74 % of control and 80 % of control; (dose: 500.0 mg/kg/injection, schedule: Q01DX010 (sc), vehicle: steriod suspending solution) 85 % of control; (dose: 500.0 mg/kg/injection, schedule: Q02DX005 (sc), vehicle: steriod suspending solution) 96 % of control. In addition, the T/C (dose: 1000.0 mg/kg/injection, schedule: Q01DX001 (sc), vehicle: steriod suspending solution) is 100 % of control and 112 % of control.

The T/C is the ratio of treated to control.
